The text below walks through data of ChEMBL document CHEMBL1201862, “PubChem BioAssay data set” (2004).

Test systems include SR; A498; M19-MEL; K562; HCC 2998; HOP-92; PC-3; UO-31; OVCAR-8; NCI-H522; T47D; IGROV-1; HL-60; SK-MEL-28; HCT-15; RPMI-8226; NCI-H23; NCI-H460; NCI/ADR-RES; SK-MEL-5.
Common to all, as to assay: NCI anticancer screen, dose series, 48 h

SMILES strings stand for the structures.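 In this assay, cells in 96-well plates receive the compound at five concentrations for 48 hours. Endpoints are linearly interpolated between the surrounding concentrations. At the GI50, growth is halved.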 Activity calls are given as the source filed them. Cut-off read from the data, not from the text of the source: active = GI50 up to about 1.1 µM and inactive = higher.

Take `Cc1ccc(S(=O)(=O)SC(C)(C)C)cc1`: the GI50 was 12.2 µM (inactive) in the experiment on SR; > 100 µM (inactive) with A498; 33.8 µM (inactive) with M19-MEL; 19.9 µM (inactive) in the experiment on K562; > 43.5 µM (inactive) in the experiment on HCC 2998; 63 µM (inactive) in the experiment on HOP-92. The GI50 in the experiment on PC-3 is > 10 µM (inactive); with UO-31, > 100 µM (inactive); in the experiment on OVCAR-8, 21.3 µM (inactive); in the experiment on NCI-H522 it was 14.7 µM (inactive); in the experiment on T47D, > 100 µM (inactive); in the experiment on IGROV-1, 18.9 µM (inactive). Moreover, the GI50 in the experiment on HL-60 was 18 µM (inactive); in the experiment on SK-MEL-28 it was 48.4 µM (inactive); with HCT-15, 23.4 µM; in the experiment with RPMI-8226 it was 15.3 µM (inactive); in the experiment on NCI-H23, 11.2 µM (inactive); in the experiment on NCI-H460, > 100 µM (inactive). The GI50 with NCI/ADR-RES is 32.6 µM (inactive); with SK-MEL-5, 46.1 µM (inactive).
